One block for each compound: values may come before it.
Experiments:
eNOS [1] = molecular target: T1, eNOS (Bos taurus, UniProt P29473); experiment: EPR (DEPMPO spin-trap) assessment of superoxide production by pterin-bound eNOS; type: biochemical; conditions: 7 pmol eNOS; BH4 10 μM in buffer; subsequent addition of sepiapterin 50 μM or BH2 1 mM; FIGS. 2(a)-(c)
T1 construct: made in house
Experimental: (§1) The eNOS used in Reference Examples 1, 2, 3 and 4 was made as described in Martasek, P., et al., Biochem. Biophys. Res. Commn 219, 359-365 (1996).
Assay buffer utilized contained HEPES (50 mM, pH 7.4), calcium (0.2 mM), calmodulin (10 μg/ml), NADPH (0.1 mM), L-arginine (0.1 mM), tetrahydrobiopterin (10 μM), DEPMPO (structure shown in upper right of FIG. 2(a)) (50 mM), and diethylenetriamine pentaacetic acid (DTPA) (0.1 mM). Included was 7 pmol eNOS. Incubation was for 15 min at 22° C. Subsequent addition was either of sepiapterin (50 μM) or BH2 (1 mM). The DEPMPO functions as a probe (spin-trap) that selectively captures superoxide anion. Electron paramagnetic resonance (EPR) was carried out to determine superoxide production. EPR was carried out at microwave power of 2 mW, modulation amplitude 1G, time constant 0.128 seconds, scan rate 1.6 G/s, gain 1.25×10E5, number of scans 10.

eNOS [2] = molecular target: T1, eNOS; experiment: Total nitrate/nitrite (Greiss assay) production by BH4- or BH2-bound eNOS from arginine or N-hydroxyarginine; type: biochemical; conditions: for production of nitric oxide (total nitrate/nitrite) from substrate by BH2-bound eNOS / production of nitric oxide (total nitrate/nitrite) from substrate by BH4-bound eNOS: substrate 100 μM, eNOS 10 pmol, 1 hour at 37° C.; for production of nitric oxide (total nitrate/nitrite) from substrate by BH2-bound eNOS: BH2 10 μM; for production of nitric oxide (total nitrate/nitrite) from substrate by BH4-bound eNOS: BH4 10 μM
Experimental: as §1
All samples were 100 microliter total volume and contained assay buffer (Tris.HCl pH 7.6 (50 mM), DTT (1 mM), calcium (100 μM), and calmodulin (100 nM)). In the assay buffer, eNOS (10 pmol), either BH4 (10 μM) or BH2 (10 μM), and either L-arginine (100 μM) or N^ω-hydroxy-L-arginine (100 μM) were introduced. In some experiments, the nitric oxide synthase inhibitor N^ω-methyl-L-arginine (NMA, 1 mM) was additionally added or the required NO synthase cofactor calmodulin was omitted (No CaM). Incubations were for 1 hour at 37° C. Total nitrate/nitrite (as a measure of nitric oxide) was measured by the Greiss assay as described in “Methods of Nitric Oxide Research,” edited by Feelisch, M. and Stamler, J. S., John Wiley & Sons Ltd. (1996) at pages 491-497. Results are shown in FIGS. 3(a), 3(b), 3(c) and 3(d). […] Data represent means±SEM values of quadruplicate determinations.

eNOS [3] = molecular target: T1, eNOS; experiment: Concentration dependence of nitric oxide synthesis from N-hydroxyarginine by BH2- or BH4-bound eNOS; type: biochemical; conditions: eNOS 10 pmol preincubated with BH2 10 μM or BH4 10 μM; 1 hour at 37° C.; FIG. 4
Experimental: as §1
eNOS (10 pmol) was preincubated for 30 minutes at 37° C. in the presence of either BH2 (10 μM) or BH4 (10 μM) in assay buffer (Tris.HCl pH 7.6 (50 mM), DTT (1 mM), calcium (100 μM) and calmodulin (100 nM)). Then N^ω-hydroxy-L-arginine (denoted “Hydroxyarginine” in FIG. 4) was added (concentrations as disclosed in FIG. 4) and incubations were 100 microliter total volume and were allowed to proceed for 1 hour at 37° C. Nitric oxide production was assessed from accumulation of its stable oxidation products (nitrite and nitrate), quantified by a modified Greiss assay (reference recited in Reference Example 3). Data are mean±SEM values of quadruplicate determinations.

[4] = Example I: ointment applied to toes of male with Type I diabetes; type: in vivo, human; conditions: 1% by weight ointment four times a day
From the text: A person with Type I diabetes presents with symptoms of pain in toes and loss of pink color (gray tissue tone) in toes. An ointment containing 1% by weight N^ω-hydroxy-L-arginine is applied to the toes four times a day.

[5] = Example II: treadmill test in male with coronary artery disease; type: in vivo, human; conditions: oral 10 mg/kg, within 90 minutes after dose; 3 mph, 5% incline; before treatment pain after 10 minutes
Experimental: A person with coronary artery disease develops chest pain and electrocardiographic evidence of angina after 10 minutes on a treadmill at 3 mph and 5% incline. Within 90 minutes after an oral dose of 10 mg/kg of N^ω-hydroxy-L-arginine, the subject is able to walk on the treadmill at 3 mph and 5% incline for 25 minutes without pain or evidence of […].

[6] = Example III: blood pressure and vascular resistance in hypertensive female; type: in vivo, human; conditions: single 10 mg/kg intravenous dose, one hour after
Experimental: A person has moderate hypertension (150/100 mm Hg) and elevated vascular resistance. One hour after receiving a single 10 mg/kg intravenous dose of N^ω-hydroxy-L-arginine, mean arterial blood pressure is diminished by 14 mm Hg and systemic vascular resistance is reduced by 10%.

[7] = Example IV: chronic oral therapy after stroke; type: in vivo, human; conditions: oral 5 mg/kg every 4 hours, alone or combined with L-arginine 20 mg/kg every 4 hours
Experimental: A person suffers from type 2 diabetes (adult onset diabetes or insulin resistant diabetes), coronary artery disease and hypertension (a not uncommon composite of conditions), experiences a stroke resulting in acute left-sided paralysis owing to right middle cerebral artery occlusion. Surviving the stroke, the patient is placed on chronic oral therapy with N^ω-hydroxy-L-arginine, 5 mg/kg every 4 hours, or a combination of this with L-arginine, 20 mg/kg every 4 hours.

[8] = Example V: chronic oral treatment of man with mild hypertension and coronary artery atherosclerosis; type: in vivo, human; conditions: oral 5 mg/kg every 4 hours, free drug or with antioxidants/vitamins, with or without L-arginine
Experimental: He is treated with 5 mg/kg N^ω-hydroxy-L-arginine every 4 hours orally as either free drug or in admixture with antioxidant agents and vitamins (e.g., ascorbate, alpha-tocopherol, vitamin B6, vitamin B12, folate (folic acid), carotenoids, coenzyme Q10, phytoestrogens (including isoflavonoids), selenium, butylated hydroxytoluene (BHT), butylated hydroxyanisole (BHA) and n-3 polyunsaturated fatty acids (PUFA)) with or without L-arginine supplementation (20 mg/kg every 4 hours). The mixture is delivered as a nutriceutical. Blood pressure normalizes to less than 130/80 mm Hg and angiographic evidence indicates atherosclerosis progression is less than 10% additional over the next five years.

eNOS [9] = molecular target: T2, eNOS (Bos taurus, UniProt P29473); experiment: [3H]tetrahydrobiopterin competition binding to eNOS (96-well filtration plate assay); conditions: [3H]BH4 10 pmoles, eNOS 3 pmoles, 15 minutes at 22° C., FIG. 1
T2 construct: made in house
T2 sequence (P29473 1-1205): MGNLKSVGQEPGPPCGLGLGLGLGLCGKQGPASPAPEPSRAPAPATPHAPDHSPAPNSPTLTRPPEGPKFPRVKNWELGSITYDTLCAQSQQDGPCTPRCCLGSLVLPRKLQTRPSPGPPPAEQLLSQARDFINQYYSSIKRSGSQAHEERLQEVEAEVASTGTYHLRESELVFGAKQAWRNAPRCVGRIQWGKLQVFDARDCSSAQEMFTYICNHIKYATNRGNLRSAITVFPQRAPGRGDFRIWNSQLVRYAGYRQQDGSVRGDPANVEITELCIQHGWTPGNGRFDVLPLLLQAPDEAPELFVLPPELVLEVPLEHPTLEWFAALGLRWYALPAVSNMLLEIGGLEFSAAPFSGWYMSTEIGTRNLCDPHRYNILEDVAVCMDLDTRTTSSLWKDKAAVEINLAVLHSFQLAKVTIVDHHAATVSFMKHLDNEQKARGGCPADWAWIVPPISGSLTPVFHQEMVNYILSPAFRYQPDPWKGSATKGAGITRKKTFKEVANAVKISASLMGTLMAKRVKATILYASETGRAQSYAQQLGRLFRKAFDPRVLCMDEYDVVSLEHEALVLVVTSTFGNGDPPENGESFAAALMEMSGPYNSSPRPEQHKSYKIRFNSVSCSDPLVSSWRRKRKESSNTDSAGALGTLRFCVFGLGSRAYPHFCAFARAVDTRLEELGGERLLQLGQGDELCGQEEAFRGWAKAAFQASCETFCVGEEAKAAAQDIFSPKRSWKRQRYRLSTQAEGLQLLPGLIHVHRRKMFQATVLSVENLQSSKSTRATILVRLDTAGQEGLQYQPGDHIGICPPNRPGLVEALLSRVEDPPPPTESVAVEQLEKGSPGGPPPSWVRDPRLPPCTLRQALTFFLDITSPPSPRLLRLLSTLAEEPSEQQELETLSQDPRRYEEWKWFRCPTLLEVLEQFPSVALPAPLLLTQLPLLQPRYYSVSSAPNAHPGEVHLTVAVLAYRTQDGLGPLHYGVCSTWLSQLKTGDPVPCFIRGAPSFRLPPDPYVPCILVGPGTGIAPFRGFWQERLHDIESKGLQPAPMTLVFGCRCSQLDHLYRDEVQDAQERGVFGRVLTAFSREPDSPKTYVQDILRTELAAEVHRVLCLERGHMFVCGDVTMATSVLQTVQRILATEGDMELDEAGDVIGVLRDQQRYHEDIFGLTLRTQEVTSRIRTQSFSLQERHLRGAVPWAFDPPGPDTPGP
Experimental: as §1
Increasing concentrations of unlabeled pterins were incubated for 15 minutes at 22° C. with [^3]tetrahydrobiopterin ([^3H]BH4), 10 pmoles, and eNOS, 3 pmoles, in binding buffer which is Tris.HCl, pH 7.5, (50 mM), and dithiothreitol (DTT) (1 mM), in a 100 microliter volume in each well in a 96-well filtration plate assay. The pterins used include 5,6,7,8-tetrahydrobiopterin (BH4), 7,8-dihydrobiopterin (BH2), 6-methyltetrahydrobiopterin (6 MePH4) and sepiapterin. Data which are shown in FIG. 1 are mean±SEM values of triplicate determinations. Similar results were obtained in four separate experiments. In FIG. 1, the squares denote BH4 for the naturally occurring (R)-stereoisomer of BH4 and represent BH4, the triangles represent BH2, the diamonds represent 6 MePH4, and the circles represent sepiapterin. In FIG. 1, the term “Inhibitor” in the horizontal legend means pterin analog and is generic for BH4, BH2, 6MePH4 and sepiapterin. Incubations were carried out at the concentrations indicated by the data points in FIG. 1. This experiment is to compare the ability of the named pterins to compete for [^3H]BH4 binding to eNOS.

superoxide production by eNOS bound to the pterin (EPR) (eNOS [1]): will activate superoxide production
Structure (SMILES): C[C@H](O)C(=O)C1=Nc2c(nc(N)[nH]c2=O)NC1 [sepiapterin]

affinity of binding to eNOS (competition for [3H]BH4 binding) (eNOS [9]): bind with equal affinity to eNOS | superoxide production by eNOS bound to the pterin (EPR) (eNOS [1]): activate superoxide production
Structure (SMILES): C[C@H](O)[C@H](O)C1=Nc2c(nc(N)[nH]c2=O)NC1 [BH2, 7,8-dihydrobiopterin]

block of arginine conversion to nitric oxide by BH4-bound eNOS (eNOS [2]; NMA 1 mM added, L-arginine 100 μM): > 90% | effect on N-hydroxyarginine conversion to nitric oxide by BH2-bound eNOS (eNOS [2]; NMA 1 mM added, N-hydroxy-L-arginine 100 μM): < 30%
Structure (SMILES): CNC(=N)NCCC[C@H](N)C(=O)O [NMA, N^ω-methyl-L-arginine]

Further lines, the compound ahead of its results:

Structure (SMILES): N=C(NO)NCCC[C@H](N)C(=O)O [N^ω-hydroxy-L-arginine]
production of nitric oxide (total nitrate/nitrite) from substrate by BH2-bound eNOS (eNOS [2]): does cause production of nitric oxide | production of nitric oxide (total nitrate/nitrite) from substrate by BH4-bound eNOS (eNOS [2]): causes production of nitric oxide | production of nitrogen oxides (nitrite and nitrate) by eNOS from the substrate (eNOS [3]): supports the production of nitrogen oxides by eNOS in the presence of either BH2 or BH4 | blood perfusion [4]: Blood perfusion is increased | pain in toes ([4]; within 48 hours): pain diminishes | tissue colour of toes ([4]; within 48 hours): tissue becomes pinker | time able to walk on treadmill without pain or evidence of angina [5]: 25 min | decrease of mean arterial blood pressure [6]: 14 mm Hg | reduction of systemic vascular resistance [6]: 10% | recurrence of stroke within the next two years [7]: no recurrence of stroke | atherosclerosis progression (angiographic) over the next five years [8]: less than 10% | blood pressure after treatment ([8]; baseline 140/90 mm Hg): less than 130/80

Structure (SMILES): N=C(N)NCCC[C@H](N)C(=O)O [arginine, L-arginine]
production of nitric oxide (total nitrate/nitrite) from substrate by BH2-bound eNOS (eNOS [2]): does not cause production of nitric oxide | production of nitric oxide (total nitrate/nitrite) from substrate by BH4-bound eNOS (eNOS [2]): causes production of nitric oxide

— patent publication US6784178B2, “Pharmacotherapy for vascular dysfunction associated with deficient nitric oxide bioactivity” (Cornell Research Foundation, Inc., priority 2000, dated 2004)
